Source: patent US11530221B2, “Pyrimido[4,5-d]pyrimidin-2-one derivatives as protein kinase inhibitors” (KOREA INSTITUTE OF SCIENCE AND TECHNOLOGY, priority 2019, dated 2022)
Read-outs that look alike come from different tables or passages of the source. Values belong to the molecule of their own block, whether it stands above or below them. Square brackets hold non-standard residues; d marks the D form. Peptide text beside a SMILES is read from it. * marks the point of attachment. X1 = Cc1ccc(Nc2ncc3c(n2)N(C)C(=O)N(c2cc(C(=O)*)ccc2C)C3)cn1; Aib = CC(C)(N)C(=O)O

Assays:
Type in all cases: biochemical
LCK [1] = biological target: T1, LCK (Homo sapiens, UniProt P06239); test: IC50 inhibitory activity against LCK kinase
Procedure: (§1) IC50 values were calculated by measuring the inhibitory activity against LCK, c-Src, p38a/MAPK14, ABL1, DDR1 and FGR kinases of the compounds of the present invention.

c-Src [2] = biological target: T2, c-Src (Homo sapiens, UniProt P12931); test: IC50 inhibitory activity against c-Src kinase
Procedure: as §1

LYN [3] = biological target: T3, LYN (Homo sapiens, UniProt P07948); test: IC50 inhibitory activity against LYN kinase
FGR [4] = biological target: T4, FGR (Homo sapiens, UniProt P09769); test: Full kinase panel, single concentration: FGR; details: read-out: residual enzyme activity (%) FGR
Procedure: (§2) In order to measure the inhibitory activity (% inhibitory capacity) against protein kinases of the compounds of the present invention, biochemical assays were performed using a full kinase panel.
(§3) The experimental compounds used herein were the compounds of Compound Nos. 1 and 33. The residual enzyme activity (%) was calculated by measuring the inhibitory activity against kinases upon treatment with the experimental compound at a single concentration of 1 μM. Kinases having calculated residual enzyme activity (%) of 30% or less (that is, inhibition of 70% or more) are shown below.

c-Src [5] = biological target: T2, c-Src; test: Full kinase panel, single concentration: c-Src; details: read-out: residual enzyme activity (%) c-Src
Procedure: as §2, §3

ABL1 (T315I) = ABL1 (T315I) (Homo sapiens, UniProt P00519, T315I); test: IC50 inhibitory activity against ABL1 (T315I) kinase
Procedure: as §1

HCK = HCK (Homo sapiens, UniProt P08631); test: Full kinase panel, single concentration: HCK; details: read-out: residual enzyme activity (%) HCK
Procedure: as §2, §3

DDR1 [6] = biological target: T5, DDR1 (Homo sapiens, UniProt Q08345); test: Full kinase panel, single concentration: DDR1; details: read-out: residual enzyme activity (%) DDR1
Procedure: as §2, §3

DDR1 [7] = biological target: T5, DDR1; test: IC50 inhibitory activity against DDR1 kinase
Procedure: as §1

ABL2 = ABL2 (Homo sapiens, UniProt P42684); test: Full kinase panel, single concentration: ABL2; details: read-out: residual enzyme activity (%) ABL2
Procedure: as §2, §3

p38a/MAPK14 = p38a/MAPK14 (Homo sapiens, UniProt Q16539); test: IC50 inhibitory activity against p38a/MAPK14 kinase
Procedure: as §1

BMX = biological target: T6, BMX (Homo sapiens, UniProt P51813); test: Full kinase panel, single concentration: BMX; details: read-out: residual enzyme activity (%) BMX
T6 sequence (P51813 1-675): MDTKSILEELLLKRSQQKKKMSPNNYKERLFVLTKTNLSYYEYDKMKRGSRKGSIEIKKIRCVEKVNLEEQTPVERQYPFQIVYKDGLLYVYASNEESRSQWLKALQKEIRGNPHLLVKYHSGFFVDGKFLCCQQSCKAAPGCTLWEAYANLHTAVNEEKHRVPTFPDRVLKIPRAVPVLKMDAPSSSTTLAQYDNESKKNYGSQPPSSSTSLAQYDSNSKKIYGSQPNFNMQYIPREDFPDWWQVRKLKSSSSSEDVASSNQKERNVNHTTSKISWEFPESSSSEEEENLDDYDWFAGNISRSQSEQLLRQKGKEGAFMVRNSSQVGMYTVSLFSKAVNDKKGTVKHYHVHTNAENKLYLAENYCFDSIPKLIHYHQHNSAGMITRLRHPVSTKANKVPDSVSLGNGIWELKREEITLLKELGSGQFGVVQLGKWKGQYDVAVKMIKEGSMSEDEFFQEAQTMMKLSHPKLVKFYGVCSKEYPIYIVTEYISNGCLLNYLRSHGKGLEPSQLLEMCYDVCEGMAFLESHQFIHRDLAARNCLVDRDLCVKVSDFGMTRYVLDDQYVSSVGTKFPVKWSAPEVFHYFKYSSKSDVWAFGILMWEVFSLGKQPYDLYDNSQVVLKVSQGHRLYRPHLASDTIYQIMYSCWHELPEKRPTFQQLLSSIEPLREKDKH
Procedure: as §2, §3

DDR2 = biological target: T7, DDR2 (Homo sapiens, UniProt Q16832); test: Full kinase panel, single concentration: DDR2; details: read-out: residual enzyme activity (%) DDR2
T7 sequence (Q16832 22-855): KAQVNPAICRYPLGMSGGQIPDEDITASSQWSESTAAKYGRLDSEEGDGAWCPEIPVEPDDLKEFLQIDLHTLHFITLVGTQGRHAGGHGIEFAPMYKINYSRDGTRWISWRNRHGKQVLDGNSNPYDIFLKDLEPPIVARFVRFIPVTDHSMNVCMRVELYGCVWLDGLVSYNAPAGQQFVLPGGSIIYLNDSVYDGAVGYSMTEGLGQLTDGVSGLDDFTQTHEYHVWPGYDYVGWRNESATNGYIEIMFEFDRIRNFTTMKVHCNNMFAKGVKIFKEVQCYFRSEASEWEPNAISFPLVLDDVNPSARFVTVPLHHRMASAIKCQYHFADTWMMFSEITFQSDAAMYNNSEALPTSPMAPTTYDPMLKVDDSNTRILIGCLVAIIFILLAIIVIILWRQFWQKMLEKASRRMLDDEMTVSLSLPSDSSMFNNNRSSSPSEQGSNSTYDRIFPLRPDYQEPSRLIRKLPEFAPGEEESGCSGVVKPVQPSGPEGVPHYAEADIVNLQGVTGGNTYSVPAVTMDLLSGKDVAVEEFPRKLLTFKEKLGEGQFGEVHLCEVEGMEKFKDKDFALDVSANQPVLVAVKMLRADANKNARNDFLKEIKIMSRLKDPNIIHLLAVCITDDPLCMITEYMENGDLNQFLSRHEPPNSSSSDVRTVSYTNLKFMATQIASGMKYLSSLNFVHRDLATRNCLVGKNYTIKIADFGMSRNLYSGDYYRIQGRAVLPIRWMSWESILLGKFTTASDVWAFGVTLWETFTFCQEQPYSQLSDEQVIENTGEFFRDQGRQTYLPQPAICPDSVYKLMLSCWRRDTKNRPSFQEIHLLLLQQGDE
Procedure: as §2, §3

FGR [8] = biological target: T4, FGR; test: IC50 inhibitory activity against FGR kinase
Procedure: as §1

CSK = CSK (Homo sapiens, UniProt P41240); test: Full kinase panel, single concentration: CSK; details: read-out: residual enzyme activity (%) CSK
Procedure: as §2, §3

ABL1 = ABL1 (Homo sapiens, UniProt P00519); test: IC50 inhibitory activity against ABL1 kinase
Procedure: as §1

RAF1 = RAF1 (Homo sapiens, UniProt P04049); test: Full kinase panel, single concentration: RAF1; details: read-out: residual enzyme activity (%) RAF1
Procedure: as §2, §3

LCK [9] = biological target: T1, LCK; test: Full kinase panel, single concentration: LCK; details: read-out: residual enzyme activity (%) LCK
Procedure: as §2, §3

LYN [10] = biological target: T3, LYN; test: Full kinase panel, single concentration: LYN; details: read-out: residual enzyme activity (%) LYN
Procedure: as §2, §3

BLK = BLK (Homo sapiens, UniProt P51451); test: Full kinase panel, single concentration: BLK; details: read-out: residual enzyme activity (%) BLK
Procedure: as §2, §3

T2 sequence (P12931 whole entry): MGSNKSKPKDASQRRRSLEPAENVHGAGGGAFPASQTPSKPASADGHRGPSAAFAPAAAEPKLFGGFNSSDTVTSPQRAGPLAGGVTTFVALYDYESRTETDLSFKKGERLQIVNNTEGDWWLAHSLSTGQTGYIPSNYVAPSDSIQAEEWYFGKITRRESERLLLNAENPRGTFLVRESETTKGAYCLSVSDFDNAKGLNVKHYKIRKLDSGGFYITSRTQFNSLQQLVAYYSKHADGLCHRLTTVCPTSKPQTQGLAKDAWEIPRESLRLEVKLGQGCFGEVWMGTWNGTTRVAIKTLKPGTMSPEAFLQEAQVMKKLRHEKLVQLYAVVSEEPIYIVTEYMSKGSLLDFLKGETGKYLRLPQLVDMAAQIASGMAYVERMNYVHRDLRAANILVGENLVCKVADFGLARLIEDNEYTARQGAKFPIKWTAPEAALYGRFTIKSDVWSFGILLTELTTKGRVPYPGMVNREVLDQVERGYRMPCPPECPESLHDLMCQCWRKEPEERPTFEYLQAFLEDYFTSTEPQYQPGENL
T3 sequence (P07948 whole entry): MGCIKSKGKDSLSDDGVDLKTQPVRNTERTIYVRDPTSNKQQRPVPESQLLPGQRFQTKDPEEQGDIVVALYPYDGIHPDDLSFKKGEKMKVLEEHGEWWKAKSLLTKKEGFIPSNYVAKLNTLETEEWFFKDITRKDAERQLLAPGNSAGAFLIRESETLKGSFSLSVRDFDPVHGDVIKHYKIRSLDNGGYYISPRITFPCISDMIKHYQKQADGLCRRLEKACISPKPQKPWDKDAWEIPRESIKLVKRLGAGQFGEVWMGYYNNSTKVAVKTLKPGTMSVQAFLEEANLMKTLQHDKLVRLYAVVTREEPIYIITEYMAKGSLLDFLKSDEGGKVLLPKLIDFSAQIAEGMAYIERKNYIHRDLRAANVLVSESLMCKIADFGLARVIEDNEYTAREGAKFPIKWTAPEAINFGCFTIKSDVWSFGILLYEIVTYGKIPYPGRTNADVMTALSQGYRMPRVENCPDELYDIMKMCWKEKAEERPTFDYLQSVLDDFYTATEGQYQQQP
T1 sequence (P06239 whole entry): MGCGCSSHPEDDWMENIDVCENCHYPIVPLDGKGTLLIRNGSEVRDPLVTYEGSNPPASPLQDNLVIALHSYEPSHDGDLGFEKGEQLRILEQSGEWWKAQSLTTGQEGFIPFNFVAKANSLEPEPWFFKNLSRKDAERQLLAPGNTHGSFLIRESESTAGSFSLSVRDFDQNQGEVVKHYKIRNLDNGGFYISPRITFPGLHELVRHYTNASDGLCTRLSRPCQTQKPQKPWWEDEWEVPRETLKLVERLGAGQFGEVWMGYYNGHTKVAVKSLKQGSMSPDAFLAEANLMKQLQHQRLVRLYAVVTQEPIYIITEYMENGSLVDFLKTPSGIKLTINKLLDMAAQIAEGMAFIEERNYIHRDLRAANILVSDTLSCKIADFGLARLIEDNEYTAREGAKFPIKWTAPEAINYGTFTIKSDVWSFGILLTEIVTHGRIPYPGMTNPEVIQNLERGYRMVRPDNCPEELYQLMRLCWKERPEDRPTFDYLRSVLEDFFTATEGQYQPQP
T4 sequence (P09769 whole entry): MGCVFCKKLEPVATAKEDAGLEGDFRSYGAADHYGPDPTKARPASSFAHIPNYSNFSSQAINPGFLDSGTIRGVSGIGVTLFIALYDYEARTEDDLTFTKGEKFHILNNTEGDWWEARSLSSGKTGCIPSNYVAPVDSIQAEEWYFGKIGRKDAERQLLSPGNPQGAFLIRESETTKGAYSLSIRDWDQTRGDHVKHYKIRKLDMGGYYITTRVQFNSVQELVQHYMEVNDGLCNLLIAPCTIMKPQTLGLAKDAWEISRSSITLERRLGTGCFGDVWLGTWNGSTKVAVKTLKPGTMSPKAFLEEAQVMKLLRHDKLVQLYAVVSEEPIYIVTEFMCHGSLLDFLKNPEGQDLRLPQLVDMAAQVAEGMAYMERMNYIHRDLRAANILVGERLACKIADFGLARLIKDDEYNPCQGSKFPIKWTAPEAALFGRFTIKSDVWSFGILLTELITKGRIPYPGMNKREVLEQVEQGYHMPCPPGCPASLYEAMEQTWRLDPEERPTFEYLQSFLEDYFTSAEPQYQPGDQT
T5 sequence (Q08345 19-913): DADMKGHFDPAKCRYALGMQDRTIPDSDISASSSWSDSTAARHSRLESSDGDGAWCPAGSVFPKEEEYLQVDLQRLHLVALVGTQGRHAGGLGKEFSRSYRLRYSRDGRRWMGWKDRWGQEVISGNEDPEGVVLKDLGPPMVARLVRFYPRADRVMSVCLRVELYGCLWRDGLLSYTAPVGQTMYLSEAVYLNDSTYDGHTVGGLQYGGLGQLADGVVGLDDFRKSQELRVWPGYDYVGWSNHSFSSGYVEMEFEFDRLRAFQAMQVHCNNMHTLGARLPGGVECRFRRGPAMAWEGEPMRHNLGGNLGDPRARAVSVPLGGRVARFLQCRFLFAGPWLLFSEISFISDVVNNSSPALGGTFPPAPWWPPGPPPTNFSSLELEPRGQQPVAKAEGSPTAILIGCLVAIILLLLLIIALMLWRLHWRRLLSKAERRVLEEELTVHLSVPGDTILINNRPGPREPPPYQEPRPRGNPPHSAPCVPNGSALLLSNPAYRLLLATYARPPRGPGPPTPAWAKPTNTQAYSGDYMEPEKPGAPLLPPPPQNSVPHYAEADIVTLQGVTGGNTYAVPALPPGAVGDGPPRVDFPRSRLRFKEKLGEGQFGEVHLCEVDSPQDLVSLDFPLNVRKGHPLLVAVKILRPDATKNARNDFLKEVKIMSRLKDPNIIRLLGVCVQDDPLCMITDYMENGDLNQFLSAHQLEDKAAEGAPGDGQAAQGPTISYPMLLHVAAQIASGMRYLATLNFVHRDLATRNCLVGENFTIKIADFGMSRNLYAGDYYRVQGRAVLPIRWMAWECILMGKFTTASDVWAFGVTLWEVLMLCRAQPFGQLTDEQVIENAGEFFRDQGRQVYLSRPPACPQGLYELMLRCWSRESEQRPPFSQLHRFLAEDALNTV
Sequence of p38a/MAPK14 (Q16539 whole entry): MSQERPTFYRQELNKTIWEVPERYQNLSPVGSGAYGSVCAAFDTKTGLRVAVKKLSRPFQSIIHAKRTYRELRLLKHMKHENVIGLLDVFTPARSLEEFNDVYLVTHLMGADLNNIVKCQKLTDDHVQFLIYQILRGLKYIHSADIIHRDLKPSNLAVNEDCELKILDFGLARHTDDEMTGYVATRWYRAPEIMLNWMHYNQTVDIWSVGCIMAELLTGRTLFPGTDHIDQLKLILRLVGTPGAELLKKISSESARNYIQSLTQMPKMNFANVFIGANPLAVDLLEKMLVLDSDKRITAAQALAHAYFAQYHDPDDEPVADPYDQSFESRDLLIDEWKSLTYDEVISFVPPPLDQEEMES
Sequence of BLK (P51451 whole entry): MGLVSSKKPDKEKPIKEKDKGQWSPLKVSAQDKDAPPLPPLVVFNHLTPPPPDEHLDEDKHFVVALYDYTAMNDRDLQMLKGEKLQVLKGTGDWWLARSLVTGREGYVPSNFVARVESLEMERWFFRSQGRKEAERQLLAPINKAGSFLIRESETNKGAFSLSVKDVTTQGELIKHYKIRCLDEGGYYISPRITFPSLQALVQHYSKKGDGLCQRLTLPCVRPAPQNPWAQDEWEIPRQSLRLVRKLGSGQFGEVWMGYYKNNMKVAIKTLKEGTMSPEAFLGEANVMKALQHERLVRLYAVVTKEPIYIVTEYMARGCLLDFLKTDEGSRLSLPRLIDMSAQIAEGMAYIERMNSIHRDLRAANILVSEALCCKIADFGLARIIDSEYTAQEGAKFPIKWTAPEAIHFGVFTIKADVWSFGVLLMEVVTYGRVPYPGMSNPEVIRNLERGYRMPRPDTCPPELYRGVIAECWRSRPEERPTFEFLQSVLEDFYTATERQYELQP
Sequence of ABL2 (P42684 whole entry): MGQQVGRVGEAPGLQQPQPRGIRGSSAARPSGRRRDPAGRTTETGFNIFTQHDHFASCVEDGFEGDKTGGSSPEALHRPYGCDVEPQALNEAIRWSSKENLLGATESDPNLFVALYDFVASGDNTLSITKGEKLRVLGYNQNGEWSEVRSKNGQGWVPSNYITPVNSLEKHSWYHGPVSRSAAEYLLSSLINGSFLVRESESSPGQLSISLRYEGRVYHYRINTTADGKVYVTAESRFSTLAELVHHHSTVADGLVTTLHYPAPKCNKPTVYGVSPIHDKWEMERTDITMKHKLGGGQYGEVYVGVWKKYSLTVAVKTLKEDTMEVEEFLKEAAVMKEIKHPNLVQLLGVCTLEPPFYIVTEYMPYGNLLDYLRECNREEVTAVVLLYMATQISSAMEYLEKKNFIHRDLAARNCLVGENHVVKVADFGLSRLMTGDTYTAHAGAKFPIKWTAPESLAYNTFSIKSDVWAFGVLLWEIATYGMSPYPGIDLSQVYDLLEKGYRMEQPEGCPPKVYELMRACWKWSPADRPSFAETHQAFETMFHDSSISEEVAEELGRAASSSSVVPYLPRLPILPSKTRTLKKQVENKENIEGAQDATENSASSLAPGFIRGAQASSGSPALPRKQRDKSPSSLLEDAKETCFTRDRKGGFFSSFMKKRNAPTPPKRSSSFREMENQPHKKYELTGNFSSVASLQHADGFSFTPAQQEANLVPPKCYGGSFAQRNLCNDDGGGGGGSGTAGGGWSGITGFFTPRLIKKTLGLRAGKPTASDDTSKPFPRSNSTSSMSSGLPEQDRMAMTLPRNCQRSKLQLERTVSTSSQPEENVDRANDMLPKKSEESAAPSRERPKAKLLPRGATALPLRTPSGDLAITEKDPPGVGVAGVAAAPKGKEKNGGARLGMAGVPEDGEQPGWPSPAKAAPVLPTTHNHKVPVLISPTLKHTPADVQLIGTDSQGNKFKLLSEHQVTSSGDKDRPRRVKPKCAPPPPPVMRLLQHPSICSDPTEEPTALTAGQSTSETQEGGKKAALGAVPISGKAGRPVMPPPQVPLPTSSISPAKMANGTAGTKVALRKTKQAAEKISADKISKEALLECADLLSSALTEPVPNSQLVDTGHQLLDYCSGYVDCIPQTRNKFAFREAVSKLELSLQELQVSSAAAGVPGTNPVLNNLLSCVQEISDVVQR

SMILES: CC1=N[C@H](Cc2ccccc2)C(=O)Nc2cc(C(=O)Nc3ccc(C)c(N4Cc5cnc(Nc6ccc(C)nc6)nc5N(C)C4=O)c3)ccc21 [Example 35, (R)-3-benzyl-5-methyl-N-(4-methyl-3-(1-methyl-7-((6-methylpyridin-3-yl)amino)-2-oxo-1,4-dihydropyrimido[4,5-d]pyrimidin-3(2H)-yl)phenyl)-2-oxo-2,3-dihydro-1H-benzo[e][1,4]diazepine-8-carboxamide]
IC50 (LCK [1]; read-out: LCK IC50): 1 to 200 nM
IC50 (c-Src [2]; read-out: c-Src IC50): 1 to 200 nM
IC50 (LYN [3]): 1 to 200 nM

SMILES: Cc1ccc(Nc2ncc3c(n2)N(C)C(=O)N(c2cc(C(=O)N[C@H](C(=O)N4CCC[C@H]4C(=O)NC(C)(C)C(=O)N[C@@H](CC(C)C)C(=O)N(C)C)C(C)C)ccc2C)C3)cn1 [Example 1, (S)—N-(1-(((S)-1-(dimethylamino)-4-methyl-1-oxopentan-2-yl)amino)-2-methyl-1-oxopropan-2-yl)-1-((4-methyl-3-(1-methyl-7-((6-methylpyridin-3-yl)amino)-2-oxo-1,4-dihydropyrimido[4,5-d]pyrimidin-3(2H)-yl)benzoyl)-L-valyl)pyrrolidine-2-carboxamide] (X1-VP[Aib]L-NMe2)
IC50 (LCK [1]): 1 to 200 nM
remaining activity at 1 µM (FGR [4]): ≤ 30%
remaining activity at 1 µM (c-Src [5]): ≤ 30%
IC50 (ABL1 (T315I)): > 600 nM
IC50 (c-Src [2]): > 600 nM
remaining activity at 1 µM (HCK): ≤ 30%
remaining activity at 1 µM (DDR1 [6]): ≤ 30%
IC50 (DDR1 [7]): 1 to 200 nM
remaining activity at 1 µM (ABL2): ≤ 30%
IC50 (p38a/MAPK14): > 600 nM
remaining activity at 1 µM (BMX): ≤ 30%
remaining activity at 1 µM (DDR2): ≤ 30%
IC50 (FGR [8]): 1 to 200 nM
remaining activity at 1 µM (CSK): ≤ 30%
IC50 (ABL1): 200 to 400 nM
remaining activity at 1 µM (RAF1): ≤ 30%
remaining activity at 1 µM (LCK [9]): ≤ 30%
remaining activity at 1 µM (LYN [10]): ≤ 30%
remaining activity at 1 µM (BLK): ≤ 30%

SMILES: Cc1ccc(Nc2ncc3c(n2)N(C)C(=O)N(c2cc(NC(=O)c4ccc5c(c4)N(Cc4ccccc4)C(=O)[C@H](C)N=C5c4ccccc4)ccc2C)C3)cn1 [Example 31, (S)-1-benzyl-3-methyl-N-(4-methyl-3-(1-methyl-7-((6-methylpyridin-3-yl)amino)-2-oxo-1,4-dihydropyrimido[4,5-d]pyrimidin-3(2H)-yl)phenyl)-2-oxo-5-phenyl-2,3-dihydro-1H-benzo[e][1,4]diazepine-8-carboxamide]
IC50 (LCK [1]; read-out: LCK IC50): 1 to 200 nM
IC50 (ABL1 (T315I); read-out: ABL1 (T315I) IC50): > 600 nM
IC50 (c-Src [2]; read-out: c-Src IC50): 1 to 200 nM
IC50 (LYN [3]): 1 to 200 nM
IC50 (p38a/MAPK14; read-out: p38a/MAPK14 IC50): 1 to 200 nM
IC50 (ABL1; read-out: ABL1 IC50): 1 to 200 nM

SMILES: CC1=N[C@@H](Cc2ccccc2)C(=O)Nc2cc(C(=O)Nc3ccc(C)c(N4Cc5cnc(Nc6ccc(C)nc6)nc5N(C)C4=O)c3)ccc21 [Example 34, (S)-3-benzyl-5-methyl-N-(4-methyl-3-(1-methyl-7-((6-methylpyridin-3-yl)amino)-2-oxo-1,4-dihydropyrimido[4,5-d]pyrimidin-3(2H)-yl)phenyl)-2-oxo-2,3-dihydro-1H-benzo[e][1,4]diazepine-8-carboxamide]
IC50 (LCK [1]; read-out: LCK IC50): 1 to 200 nM
IC50 (c-Src [2]; read-out: c-Src IC50): 1 to 200 nM
IC50 (LYN [3]): 1 to 200 nM

Other lines, results leading:

IC50 (LCK [1]; read-out: LCK IC50): 1 to 200 nM
IC50 (c-Src [2]; read-out: c-Src IC50): 200 to 400 nM
IC50 (LYN [3]): 1 to 200 nM
SMILES: C=CCN1C(=O)[C@H](CC(C)C)N=C(c2ccccc2)c2ccc(C(=O)Nc3ccc(C)c(N4Cc5cnc(Nc6ccc(C)nc6)nc5N(C)C4=O)c3)cc21 [Example 38, (S)-1-allyl-3-isobutyl-N-(4-methyl-3-(1-methyl-7-((6-methylpyridin-3-yl)amino)-2-oxo-1,4-dihydropyrimido[4,5-d]pyrimidin-3(2H)-yl)phenyl)-2-oxo-5-phenyl-2,3-dihydro-1H-benzo[e][1,4]diazepine-8-carboxamide]

IC50 (LCK [1]; read-out: LCK IC50): 1 to 200 nM
IC50 (c-Src [2]; read-out: c-Src IC50): 1 to 200 nM
IC50 (LYN [3]): 1 to 200 nM
SMILES: Cc1ccc(Nc2ncc3c(n2)N(C)C(=O)N(c2cc(NC(=O)c4ccc5c(c4)N(C)C(=O)[C@H](CC(C)C)N=C5c4ccccc4)ccc2C)C3)cn1 [Example 37, (S)-3-isobutyl-1-methyl-N-(4-methyl-3-(1-methyl-7-((6-methylpyridin-3-yl)amino)-2-oxo-1,4-dihydropyrimido[4,5-d]pyrimidin-3(2H)-yl)phenyl)-2-oxo-5-phenyl-2,3-dihydro-1H-benzo[e][1,4]diazepine-8-carboxamide]
